ChEMBL document CHEMBL3751775, “Identification of B. anthracis N(5)-carboxyaminoimidazole ribonucleotide mutase (PurE) active site binding compounds via fragment library screening” (Bioorg Med Chem, 2016)

Columns and labels:
[1] = Binding affinity to Bacillus anthracis PurE by intrinsic tryptophan fluorescence analysis
Bacillus anthracis [2] = assay: Inhibition of Bacillus anthracis PurE using CAIR as substrate at 100 uM preincubated for 5 mins followed by substrate addition by UV spectroscopic analysis
[3] = Binding affinity to Bacillus anthracis PurE by Surface Plasmon Resonance analysis
[4] = Aqueous solubility of the compound; format: physicochemical
[5] = Binding affinity to Escherichia coli PurE by Surface Plasmon Resonance analysis
Bacillus anthracis [6] = assay: Inhibition of Bacillus anthracis PurE using CAIR as substrate at 25 uM preincubated for 5 mins followed by substrate addition by UV spectroscopic analysis

| Compound | Kd ([1]; read-out: Kd) [µM] | Kd [3] [µM] | other results |
| --- | --- | --- | --- |
| Cc1ccc(C(=S)c2nnns2)cc1 | 81.3 | 60.8 | inhibition (Bacillus anthracis [2]): 36% |
| Oc1cc(Cl)c(Cl)cc1O | 182 | 103 |  |
| NCc1cc(-c2ccccc2Cl)on1 | 402 | 444 |  |
| CCOc1cc(CO)c(Br)cc1OC | 367 | 157 |  |
| Nc1cncn1[C@@H]1O[C@H](COP(=O)(O)O)[C@@H](O)[C@H]1O | 283 |  |  |
| O=C(O)c1ccc(O)c(O)c1 [PROTOCATECHUIC ACID] |  | 274 | solubility [4]: > 1200 µM |
| CCOc1ccccc1C(=S)N1CCOCC1 | 61.6 | 73 |  |
| O=C(O)c1cc2cc(F)ccc2[nH]1 [5-FLUOROINDOLE-2-CARBOXYLIC ACID] |  | 234 |  |
| Nc1c([N+](=O)[O-])ncn1[C@@H]1O[C@H](COP(=O)(O)O)[C@@H](O)[C@H]1O |  |  | Kd [5]: 0.086 µM |
| Cc1cc(C(=O)Nc2cccc(F)c2)no1 | 95.4 | 79.8 |  |
| Nc1nn2c(-c3ccccc3)nnc2s1 | 604 | 121 |  |
| COc1ccc(-c2cc(N)[nH]n2)cc1 | 214 | 149 |  |
| Cc1cnc(NC(=O)c2ccoc2C)s1 | 39.6 | 20.3 |  |
| CCc1ccc(C(=O)Nc2nncs2)s1 | 19.8 | 13.5 | inhibition (Bacillus anthracis [6]): 49% |
| Cc1ccc(C(N)c2ccncc2)cc1 (stereo not drawn) |  | 707 | Kd [1]: Not Active |
| NC(=S)N1CCc2ccccc21 | 35.7 | 35.3 |  |
| COc1ccc2ncc(N)cc2c1 | 73.8 | 261 |  |
